{"source": "ChEMBL document CHEMBL2073802", "about": "“Increase in doxorubicin cytotoxicity by inhibition of P-glycoprotein activity with lomerizine” (Biol Pharm Bull, 2001)", "biological_target": "ATP-dependent translocase ABCB1 (Homo sapiens, UniProt P08183)", "sequence (P08183 whole entry)": "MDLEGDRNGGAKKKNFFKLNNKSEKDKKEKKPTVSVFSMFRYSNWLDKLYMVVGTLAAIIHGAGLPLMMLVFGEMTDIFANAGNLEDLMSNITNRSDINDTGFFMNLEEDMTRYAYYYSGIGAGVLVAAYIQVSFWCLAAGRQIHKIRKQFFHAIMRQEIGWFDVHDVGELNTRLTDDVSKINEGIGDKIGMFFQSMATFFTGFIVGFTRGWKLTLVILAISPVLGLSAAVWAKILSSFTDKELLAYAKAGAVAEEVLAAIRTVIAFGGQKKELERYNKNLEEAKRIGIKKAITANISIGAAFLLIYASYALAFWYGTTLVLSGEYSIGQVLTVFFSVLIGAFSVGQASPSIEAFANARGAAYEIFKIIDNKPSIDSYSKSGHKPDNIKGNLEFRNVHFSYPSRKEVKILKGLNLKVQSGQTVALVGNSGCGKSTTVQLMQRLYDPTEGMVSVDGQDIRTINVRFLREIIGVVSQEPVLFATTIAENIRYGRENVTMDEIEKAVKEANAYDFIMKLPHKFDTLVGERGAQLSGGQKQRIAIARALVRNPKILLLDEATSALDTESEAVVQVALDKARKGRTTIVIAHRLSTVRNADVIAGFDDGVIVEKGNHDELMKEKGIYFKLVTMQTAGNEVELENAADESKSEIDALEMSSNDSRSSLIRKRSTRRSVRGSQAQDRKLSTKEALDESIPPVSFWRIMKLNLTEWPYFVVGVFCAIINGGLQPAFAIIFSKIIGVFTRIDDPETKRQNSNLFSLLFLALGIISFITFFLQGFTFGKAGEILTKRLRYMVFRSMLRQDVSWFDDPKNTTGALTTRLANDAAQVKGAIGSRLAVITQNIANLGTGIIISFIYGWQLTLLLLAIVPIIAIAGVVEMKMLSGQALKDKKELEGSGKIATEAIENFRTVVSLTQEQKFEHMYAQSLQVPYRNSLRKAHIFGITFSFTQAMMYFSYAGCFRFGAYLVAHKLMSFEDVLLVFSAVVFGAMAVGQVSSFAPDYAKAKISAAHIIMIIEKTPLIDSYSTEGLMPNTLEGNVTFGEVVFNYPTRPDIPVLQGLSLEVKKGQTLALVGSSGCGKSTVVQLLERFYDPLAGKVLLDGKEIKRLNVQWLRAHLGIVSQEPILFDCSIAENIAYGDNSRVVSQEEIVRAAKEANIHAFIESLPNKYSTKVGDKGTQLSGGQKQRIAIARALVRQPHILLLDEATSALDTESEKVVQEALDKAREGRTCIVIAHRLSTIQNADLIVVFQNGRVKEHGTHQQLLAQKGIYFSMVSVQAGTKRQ", "test": "TP_TRANSPORTER: increase in Calcein intracellular accumulation (Calcein: 1 uM, Lomerizine: 10 uM) in K562/DOX cells", "type": "functional, cell-based", "settings": "k562/adr"}
{"smiles": "COc1ccc(CN2CCN(C(c3ccc(F)cc3)c3ccc(F)cc3)CC2)c(OC)c1OC", "note": "[LOMERIZINE]", "values": [{"measurement": "Activity", "value": "inhibitor [+]"}]}
